From US20110009403A1, “2-MORPHOLINYLPURINES AS INHIBITORS OF PI3K” (S*BIO Pte Ltd., priority 2007, published 2011)

What was measured:
PI3K p110α/p85 = target: T1, PI3K p110α/p85 (Homo sapiens, UniProt P42336); experiment: PI3K assay ([γ33P]ATP, PtdIns/PtdSer coated plates); assay type: biochemical; conditions: 2 μM ATP, 1 hour at RT; read-out: IC50 (PI3Kα)
T1 construct: made in house
Protocol: Recombinant PI3K p110α/p85 was prepared in-house. Phosphatidylinositol (PtdIns), phosphotidylserine (PtdSer) and all other unspecified chemicals were purchased from Sigma-Aldrich. [γ^33P]ATP and Optiphase scintillant were obtained from Perkin Elmer.
Assays were performed in a final assay volume of 25 μL in 384-well Maxisorp plates (Nunc). Compounds were tested at 8 concentrations in 3-fold serial dilution, generally starting from 10 μM. Maxisorp plates were coated with 20 μL/well of a 1:1 mixture of PtdIns and PtdSer [0.1 mg/mL each dissolved in chloroform:ethanol (3:7)] and left overnight in a fume hood at room temperature (RT) to dry.
The enzyme reaction was created by pipetting 5 μL/well of compound (in 2.5% DMSO), 10 μL/well of enzyme (0.5 μg/mL p110α+1 μg/mL p85), and 10 μL/well of 5 μM ATP with 5 μCi/mL [γ^33P]ATP in assay buffer (final concentrations: 0.2 μg/mL p110α, 2 μM ATP, […] [γ^33P]ATP in 1× assay buffer: 100 mM Tris-HCl pH 7.0, 200 mM NaCl, 8 mM MgCl2). The reaction was incubated for 1 hour at RT and terminated with 30 μL/well of 50 mM EDTA solution. The plate was then washed twice with TBS, dried, and added with 30 μL/well of scintillant before it was counted in a MicroBeta Trilux.

mTOR = mTOR (Homo sapiens, UniProt P42345); experiment: mTOR assay (phosphorylation of 4eBP1, [γ33P]-ATP filter plate); assay type: biochemical; conditions: 10 μM ATP, 1 hour at room temperature
Protocol: Truncated mTOR kinase and His-tagged 4eBP1 were produced in-house. [γ^33P]-ATP was purchased from Amersham (GE Healthcare). All chemicals, unless otherwise stated, were from Sigma-Aldrich.
Phosphorylation assays were initially performed in a final volume of 20 μL in 384-well polypropylene plate (Greiner). Compounds were typically tested over the range from 100 μM to 0.006 μM, in 8 step dilutions, in duplicate. 10 μL/well of 2× Enzyme-Substrate solution (1.5 μg/mL mTOR, 40 μg/mL 4eBP1 in 1× assay buffer: 10 mM Hepes pH 7.5, 50 mM NaCl and 10 mM MnCl2) were first added to the sample plate containing 1 μL/well of test compound in neat DMSO. The reaction was initiated by adding 10 μL/well of 20 μM ATP solution (final assay concentration 10 μM ATP and 0.4 μCi/well of [γ^33P]-ATP). After 1 hour incubation at room temperature, the reaction was terminated with 40 μL/well of 20 mM EDTA/1 mM ATP solution.
50 μL/well of the stopped reaction mix was then transferred to 384-well MultiScreenHTS-PH filter plate (Millipore) pre-added with 50 μL/well of 1% phosphoric acid. The plate was washed 4 times with 120 μL/well of 0.5% phosphoric acid via vacuum filtration. Finally, 10 μL/well of Optiphase™ SuperMix liquid scintillation cocktail (Perkin Elmer) was added. After minimum 1 hour of incubation, counting was performed in a Wallac MicroBeta TriLux scintillation counter using coincidence counting mode with crosstalk correction.

mTOR, sequence (P42345 1382-2549 limits assumed): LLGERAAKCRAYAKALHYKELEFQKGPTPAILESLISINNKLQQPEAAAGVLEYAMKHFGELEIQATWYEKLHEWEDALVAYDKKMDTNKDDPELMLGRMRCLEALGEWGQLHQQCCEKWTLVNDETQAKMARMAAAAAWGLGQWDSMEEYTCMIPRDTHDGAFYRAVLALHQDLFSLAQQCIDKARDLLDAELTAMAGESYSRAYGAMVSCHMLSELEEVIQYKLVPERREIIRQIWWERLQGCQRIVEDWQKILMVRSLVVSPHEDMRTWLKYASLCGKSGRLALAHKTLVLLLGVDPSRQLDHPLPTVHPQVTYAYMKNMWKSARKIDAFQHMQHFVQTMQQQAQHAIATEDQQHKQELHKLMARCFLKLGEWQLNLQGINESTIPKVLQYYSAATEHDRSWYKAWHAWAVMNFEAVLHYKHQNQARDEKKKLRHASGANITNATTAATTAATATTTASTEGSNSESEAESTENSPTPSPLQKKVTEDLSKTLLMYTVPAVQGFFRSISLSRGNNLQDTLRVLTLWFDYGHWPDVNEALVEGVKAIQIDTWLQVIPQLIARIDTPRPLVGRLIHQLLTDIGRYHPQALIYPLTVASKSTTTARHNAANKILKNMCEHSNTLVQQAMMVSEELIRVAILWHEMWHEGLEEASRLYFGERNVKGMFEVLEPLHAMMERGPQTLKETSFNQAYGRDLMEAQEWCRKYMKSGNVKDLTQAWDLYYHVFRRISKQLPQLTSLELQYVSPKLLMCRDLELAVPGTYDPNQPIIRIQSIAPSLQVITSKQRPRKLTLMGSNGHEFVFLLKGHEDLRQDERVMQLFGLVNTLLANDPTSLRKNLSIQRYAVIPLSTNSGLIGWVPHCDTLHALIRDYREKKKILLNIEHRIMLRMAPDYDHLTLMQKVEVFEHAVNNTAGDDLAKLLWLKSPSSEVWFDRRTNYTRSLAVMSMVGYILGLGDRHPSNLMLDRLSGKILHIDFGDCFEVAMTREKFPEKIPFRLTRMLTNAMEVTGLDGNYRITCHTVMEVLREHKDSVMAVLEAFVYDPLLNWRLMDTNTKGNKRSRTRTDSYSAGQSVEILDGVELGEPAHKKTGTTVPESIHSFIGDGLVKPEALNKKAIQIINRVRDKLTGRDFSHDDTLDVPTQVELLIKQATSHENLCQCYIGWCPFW
T1 sequence (P42336 whole entry): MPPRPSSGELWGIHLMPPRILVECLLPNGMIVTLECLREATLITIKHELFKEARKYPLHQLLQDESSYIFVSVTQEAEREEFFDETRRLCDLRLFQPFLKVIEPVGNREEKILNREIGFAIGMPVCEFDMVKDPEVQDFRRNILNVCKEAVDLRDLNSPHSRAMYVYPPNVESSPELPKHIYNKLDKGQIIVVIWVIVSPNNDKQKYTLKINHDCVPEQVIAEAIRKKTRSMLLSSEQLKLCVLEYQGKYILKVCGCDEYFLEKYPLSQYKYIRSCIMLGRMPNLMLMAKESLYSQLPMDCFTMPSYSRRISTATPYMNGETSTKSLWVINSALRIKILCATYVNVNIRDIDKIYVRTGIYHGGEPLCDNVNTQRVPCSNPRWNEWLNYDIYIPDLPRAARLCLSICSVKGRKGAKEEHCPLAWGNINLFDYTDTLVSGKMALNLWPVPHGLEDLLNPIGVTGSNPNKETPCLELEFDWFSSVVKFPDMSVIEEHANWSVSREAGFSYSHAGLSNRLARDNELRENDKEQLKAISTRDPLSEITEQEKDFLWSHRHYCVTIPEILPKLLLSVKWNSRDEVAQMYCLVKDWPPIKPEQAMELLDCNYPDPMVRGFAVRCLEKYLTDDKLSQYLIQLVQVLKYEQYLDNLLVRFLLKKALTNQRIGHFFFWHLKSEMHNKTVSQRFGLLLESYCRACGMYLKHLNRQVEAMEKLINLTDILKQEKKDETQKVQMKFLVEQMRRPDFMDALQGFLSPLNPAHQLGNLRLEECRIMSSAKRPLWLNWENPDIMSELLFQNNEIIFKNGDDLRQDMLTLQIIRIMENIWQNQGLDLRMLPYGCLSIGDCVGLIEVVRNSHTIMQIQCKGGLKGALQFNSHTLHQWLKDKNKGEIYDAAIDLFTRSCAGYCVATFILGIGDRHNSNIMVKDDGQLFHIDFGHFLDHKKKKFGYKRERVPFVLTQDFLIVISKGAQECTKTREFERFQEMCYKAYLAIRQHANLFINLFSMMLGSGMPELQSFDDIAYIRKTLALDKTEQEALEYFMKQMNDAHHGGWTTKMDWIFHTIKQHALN
T1 sequence (P27986 whole entry partner): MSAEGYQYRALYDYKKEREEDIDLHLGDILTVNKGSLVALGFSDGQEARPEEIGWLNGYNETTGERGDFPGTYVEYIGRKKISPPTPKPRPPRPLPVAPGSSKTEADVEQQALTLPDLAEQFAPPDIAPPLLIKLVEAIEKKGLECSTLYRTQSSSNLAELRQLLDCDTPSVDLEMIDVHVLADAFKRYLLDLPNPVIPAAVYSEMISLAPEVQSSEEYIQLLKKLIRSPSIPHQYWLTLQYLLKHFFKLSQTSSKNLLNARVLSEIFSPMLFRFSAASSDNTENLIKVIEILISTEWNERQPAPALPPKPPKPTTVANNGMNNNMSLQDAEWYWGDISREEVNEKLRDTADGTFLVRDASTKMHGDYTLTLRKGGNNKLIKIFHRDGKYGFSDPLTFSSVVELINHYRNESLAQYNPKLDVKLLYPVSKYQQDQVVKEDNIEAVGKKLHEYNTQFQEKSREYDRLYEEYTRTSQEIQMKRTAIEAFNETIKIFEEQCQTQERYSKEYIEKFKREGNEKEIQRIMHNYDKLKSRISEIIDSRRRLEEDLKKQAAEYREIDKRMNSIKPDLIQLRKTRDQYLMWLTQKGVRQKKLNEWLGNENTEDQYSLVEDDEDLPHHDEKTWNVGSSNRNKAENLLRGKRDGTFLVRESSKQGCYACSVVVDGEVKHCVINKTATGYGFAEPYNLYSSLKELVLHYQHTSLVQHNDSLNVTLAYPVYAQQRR

| IC50 (PI3K p110α/p85) | IC50 (mTOR) | Compound |
| --- | --- | --- |
| < 1 µM | 1 to 5 µM | c1nc2cc(-c3nc(N4CCOCC4)nc4c3ncn4CC3CC3)ccc2[nH]1 [Compound 59] |
| < 1 µM | < 1 µM | CC(C)Cn1cnc2c(-c3cccc(O)c3)nc(N3CCOCC3)nc21 [Compound 60] |
| < 1 µM | < 1 µM | CC1CCC(n2cnc3c(-c4cccc(O)c4)nc(N4CCOCC4)nc32)CC1 (centres unmarked) [Compound 61] |
| < 1 µM | 1 to 5 µM | CC(C)(C)OC(=O)N1CCC(n2cnc3c(-c4cccc5[nH]ccc45)nc(N4CCOCC4)nc32)C1 (centres unmarked) [Compound 62] |
| 1 to 5 µM | > 5 µM | c1cc2[nH]nnc2cc1-c1nc(N2CCOCC2)nc2c1ncn2CC1CC1 [Compound 64] |
| > 5 µM | > 5 µM | O=c1[nH]c2ccc(-c3nc(N4CCOCC4)nc4c3ncn4CC3CC3)cc2[nH]1 [Compound 65] |
| < 1 µM | < 1 µM | CC(C)Cn1cnc2c(-c3cccc4[nH]ccc34)nc(N3CCOCC3)nc21 [Compound 66] |
| < 1 µM | < 1 µM | COCC(C)n1cnc2c(-c3cccc4[nH]ccc34)nc(N3CCOCC3)nc21 (centres unmarked) [Compound 67] |
| < 1 µM | < 1 µM | COCC(C)n1cnc2c(-c3cccc(O)c3)nc(N3CCOCC3)nc21 (centres unmarked) [Compound 68] |
| < 1 µM | < 1 µM | CCC(C)n1cnc2c(-c3cccc4[nH]ccc34)nc(N3CCOCC3)nc21 (centres unmarked) [Compound 69] |
| < 1 µM | 1 to 5 µM | c1cc(-c2nc(N3CCOCC3)nc3c2ncn3CCC2OCCCO2)c2cc[nH]c2c1 [Compound 70] |
| 1 to 5 µM | < 1 µM | Oc1cccc(-c2nc(N3CCOCC3)nc3c2ncn3CC2CCCCC2)c1 [Compound 72] |
| < 1 µM | 1 to 5 µM | c1cc(-c2nc(N3CCOCC3)nc3c2ncn3CC2CCCCC2)c2cc[nH]c2c1 [Compound 73] |
| < 1 µM | < 1 µM | O=C(Cn1cnc2c(-c3cccc(O)c3)nc(N3CCOCC3)nc21)N1CCCC1 [Compound 75, 2-(6-(3-hydroxyphenyl)-2-morpholino-9H-purin-9-yl)-1-(pyrrolidin-1-yl)ethanone] |
| < 1 µM | 1 to 5 µM | CN1CCN(C(=O)Cn2cnc3c(-c4cccc(O)c4)nc(N4CCOCC4)nc32)CC1 [Compound 76] |
| > 5 µM | < 1 µM | CC(c1ccccc1)n1cnc2c(-c3cccc4[nH]ccc34)nc(N3CCOCC3)nc21 (centres unmarked) [Compound 77] |
| < 1 µM | 1 to 5 µM | COCCn1cnc2c(-c3cccc4[nH]ccc34)nc(N3CCOCC3)nc21 [Compound 79] |
| < 1 µM | 1 to 5 µM | N#CCn1cnc2c(-c3cccc4[nH]ccc34)nc(N3CCOCC3)nc21 [Compound 80] |
| > 5 µM | > 5 µM | CC1CN(c2nc(-c3cccc4[nH]ccc34)c3ncn(CC#N)c3n2)CC(C)O1 (centres unmarked) [Compound 81] |
| < 1 µM | 1 to 5 µM | O=C(Cn1cnc2c(-c3cccc(O)c3)nc(N3CCOCC3)nc21)N1CCOCC1 [Compound 82] |
| < 1 µM | 1 to 5 µM | CC(C)NC(=O)Cn1cnc2c(-c3cccc(O)c3)nc(N3CCOCC3)nc21 [Compound 83] |
| < 1 µM | 1 to 5 µM | O=C(Cn1cnc2c(-c3cccc(O)c3)nc(N3CCOCC3)nc21)NC1CC1 [Compound 84] |
| < 1 µM | 1 to 5 µM | c1cc(-c2nc(N3CCOCC3)nc3c2ncn3C2CCNCC2)c2cc[nH]c2c1 [Compound 87] |
| < 1 µM | < 1 µM | CCCCN1CCC(n2cnc3c(-c4cccc(O)c4)nc(N4CCOCC4)nc32)CC1 [Compound 88] |
| < 1 µM | < 1 µM | O=C(Cn1cnc2c(-c3cccc(O)c3)nc(N3CCOCC3)nc21)Nc1ccccc1 [Compound 89] |
| < 1 µM | < 1 µM | CCC(C)n1cnc2c(-c3cccc(O)c3)nc(N3CCOCC3)nc21 (centres unmarked) [Compound 90] |

| IC50 (PI3K p110α/p85) | IC50 (mTOR) | Compound |
| --- | --- | --- |
| < 1 µM | < 1 µM | CC(C1CC1)n1cnc2c(-c3cccc4[nH]ccc34)nc(N3CCOCC3)nc21 (centres unmarked) [Compound 91] |
| < 1 µM | < 1 µM | CC(C1CC1)n1cnc2c(-c3cccc(O)c3)nc(N3CCOCC3)nc21 (centres unmarked) [Compound 92] |
| < 1 µM | < 1 µM | CCCC(=O)N1CCC(n2cnc3c(-c4cccc5[nH]ccc45)nc(N4CCOCC4)nc32)CC1 [Compound 93] |
| < 1 µM | 1 to 5 µM | Oc1cccc(-c2nc(N3CCOCC3)nc3c2ncn3CCN2CCCC2)c1 [Compound 94, 3-(2-morpholino-9-(2(-pyrrolidin-1-yl)ethyl)-9H-purin-6yl)phenol] |
| < 1 µM | < 1 µM | O=C(CCN1CCCCC1)N1CCC(n2cnc3c(-c4cccc5[nH]ccc45)nc(N4CCOCC4)nc32)CC1 [Compound 95] |
| < 1 µM | < 1 µM | CC(C)(C)CC(=O)N1CCC(n2cnc3c(-c4cccc5[nH]ccc45)nc(N4CCOCC4)nc32)CC1 [Compound 96] |
| < 1 µM | < 1 µM | Oc1cccc(-c2nc(N3CCOCC3)nc3c2ncn3C2CCOC2)c1 (centres unmarked) [Compound 97] |
| < 1 µM | > 5 µM | CCN(CC)CCn1cnc2c(-c3cccc(O)c3)nc(N3CCOCC3)nc21 [Compound 98] |
| < 1 µM | < 1 µM | CC(C)n1cnc2c(-c3cccc4[nH]ccc34)nc(N3CCOCC3)nc21 [Compound 99] |
| < 1 µM | 1 to 5 µM | CCC(C#N)n1cnc2c(-c3cccc4[nH]ccc34)nc(N3CCOCC3)nc21 (centres unmarked) [Compound 102] |
| < 1 µM | < 1 µM | Cc1ccc(C(=O)N2CCC(n3cnc4c(-c5cccc6[nH]ccc56)nc(N5CCOCC5)nc43)CC2)s1 [Compound 104] |
| < 1 µM | < 1 µM | O=C(Cc1cccnc1)N1CCC(n2cnc3c(-c4cccc5[nH]ccc45)nc(N4CCOCC4)nc32)CC1 [Compound 105] |
| < 1 µM | < 1 µM | O=C(Nc1ccc(Cl)cc1)N1CCC(n2cnc3c(-c4cccc5[nH]ccc45)nc(N4CCOCC4)nc32)CC1 [Compound 106] |
| < 1 µM | < 1 µM | CS(=O)(=O)N1CCN(C(=O)Cn2cnc3c(-c4cccc(O)c4)nc(N4CCOCC4)nc32)CC1 [Compound 107] |
| < 1 µM | < 1 µM | CS(=O)(=O)N1CCN(CCn2cnc3c(-c4cccc(O)c4)nc(N4CCOCC4)nc32)CC1 [Compound 108] |
| < 1 µM | < 1 µM | CCC(C)n1cnc2c(-c3cccc4[nH]ncc34)nc(N3CCOCC3)nc21 (centres unmarked) [Compound 109] |
| < 1 µM | < 1 µM | c1cc(-c2nc(N3CCOCC3)nc3c2ncn3C2CCOC2)c2cc[nH]c2c1 (centres unmarked) [Compound 110] |
| < 1 µM | < 1 µM | CS(=O)(=O)N1CCC(n2cnc3c(-c4cccc5[nH]ccc45)nc(N4CCOCC4)nc32)CC1 [Compound 111] |
| < 1 µM | < 1 µM | CCc1nc2c(-c3cccc(O)c3)nc(N3CCOCC3)nc2n1C(C)CC (centres unmarked) [Compound 112, 3-(9-sec-Butyl-8-ethyl-2-morpholin-4-yl-9H-purin-6-yl)-phenol] |
| < 1 µM | < 1 µM | CCC(C)n1c(C)nc2c(-c3cccc(O)c3)nc(N3CCOCC3)nc21 (centres unmarked) [Compound 113] |
| < 1 µM | < 1 µM | CCC(C)n1c(Br)nc2c(-c3cccc(O)c3)nc(N3CCOCC3)nc21 (centres unmarked) [Compound 114] |
| > 5 µM | > 5 µM | Oc1cccc(-c2nc(N3CCOCC3)nc3c2nc(-c2cccs2)n3C2CCCCO2)c1 (centres unmarked) [Compound 116] |
| < 1 µM | > 5 µM | Oc1cccc(-c2nc(N3CCOCC3)nc3[nH]c(-c4cccs4)nc23)c1 [Compound 117] |
| < 1 µM | < 1 µM | CCSc1nc2c(-c3cccc(O)c3)nc(N3CCOCC3)nc2n1C(C)CC (centres unmarked) [Compound 119] |
| < 1 µM | < 1 µM | CCCCNc1nc2c(-c3cccc(O)c3)nc(N3CCOCC3)nc2n1C(C)CC (centres unmarked) [Compound 120] |
| < 1 µM | < 1 µM | CCC(C)n1c(N(C)C)nc2c(-c3cccc(O)c3)nc(N3CCOCC3)nc21 (centres unmarked) [Compound 121] |
